# Experimental data taken from patent US10611771B2, “Pyrazolo [3,4-d] pyrimidine derivative” (WEST CHINA HOSPITAL, SICHUAN UNIVERSITY, priority 2016, dated 2020).
# Several values for one entry are separate records, joined by “and”; a condition that tells them apart may be missing. Identical values can stand only once.
# Test system: A549 cells
# Experiment: MTT detection method, inhibitory effect against A549 cells
# Type: cell-based
# From the text: MTT detection method was used, and MTT is a yellow compound and a dye accepting hydrogen ions, and can be used as the respiratory chain in mitochondria of viable cells. Under the action of succinate dehydrogenase and cytochrome C, the tetrazolium ring broke to form blue formanzan crystal, and the formation amount of formanzan crystal was only directly proportional to the viable counts. The formanzan crystal formed by reduction can dissolve in dimethyl sulfoxide (DMSO), and the optical density (OD) value can be determined at 490 nm using ELISA, to reflect the viable counts.
# • Lung cancer cell lines: A549 and H1299. • Experimental materials: lung cancer cell lines, instruments and tools for cell culture, MTT, the compound mother liquid (10 mmol/L), and the positive control drug Src inhibitor pp1. 1. Specific Method • (3-1) Cell lines A549 and H1299 were recovered, and when the cells were in good conditions, namely cells grew to about 80% after one passage (i.e. the logarithmic growth phase), the cells were planked (96-well plate). • (3-2) Firstly, cells were collected, and the concentration of cell suspension was adjusted with counting chamber. Cells were seeded in 96-well plate at 1000˜10000 cells/well, and the detailed cell numbers in each well were dependent on the growth rate of different cells and the action time of drugs. A549 cells were seeded at 5000 cells, while H1299 cells were also seeded at 5000 cells, 200 μl for each well (100 μl cell suspension+100 μl drug dilution at different concentration gradient). The edge wells (36) were added 200 μl culture media (for prevention of edge effect). • (3-3) After planking and adding drugs, the plate was treated at 24 h, 48 h, and 72 h, and then for coloration, each well was added 200 μl culture media containing 20 μl MTT solution (5 mg/mL). The plate was continually cultured for 1˜4 hours, the incubation was stopped, and the culture supernatant fluid in each well was carefully absorbed. For suspension cells, the culture supernatant fluid in each well need be centrifuged before drawing. 150 μl DMSO was added to each well, and the plate was shaken on a shaking table for 15˜20 min, to allow the crystals to be completely dissolved. • (3-4) Colorimetry: The colorimetry was performed by ELISA, and the optical absorption value of each well was tested at a wavelength of 490 nm or 570 nm, and the result was recorded. • (3-5) Calculation Inhibition ratio=(the control−the drug)/the control×100% • IC50 (50% inhibitory concentration) can be calculated by spass software based on the inhibitory ratio at different concentration. II. Experimental Results • A549 cells were treated at 4 h, 24 h, 48 h, 72 h, and the drug dose was divided into the light concentration group (10 μm, 25 μm, 40 μm) and the high concentration group (50 μm, 80 μm, 100 μm), that were seeded at 6000 cells/well and 5000 cells/well, respectively, to carry out the experiment.
compound,measurement,setting,value
"Cc1ccc(-c2nn(C(C)(C)C)c3ncnc(N)c23)cc1 [PP1, reference compound]",The inhibitory ratio (%) for three parallel assays,"4 h, 10 μm",14.06% and 5.63% and 10.31%
same,The mean inhibitory ratio (%),"4 h, 10 μm",10.00%
same,The mean inhibitory ratio (%),"4 h, 25 μm",8.44%
same,The inhibitory ratio (%) for three parallel assays,"4 h, 40 μm",31.88% and 35.00% and 23.44%
same,The mean inhibitory ratio (%),"4 h, 40 μm",30.10%
same,The inhibitory ratio (%) for three parallel assays,"4 h, 50 μm",26.86% and 23.43% and 24.00%
same,The mean inhibitory ratio (%),"4 h, 50 μm",24.76%
same,The inhibitory ratio (%) for three parallel assays,"4 h, 80 μm",32.86% and 31.43% and 30.00%
same,The mean inhibitory ratio (%),"4 h, 80 μm",31.43%
same,The inhibitory ratio (%) for three parallel assays,"4 h, 100 μm",44.00% and 43.43%
same,The mean inhibitory ratio (%),"4 h, 100 μm",43.81%
same,The inhibitory ratio (%) for three parallel assays,"24 h, 10 μm",14.13% and 14.78% and 11.09%
same,The mean inhibitory ratio (%),"24 h, 10 μm",13.33%
same,The inhibitory ratio (%) for three parallel assays,"24 h, 25 μm",49.35% and 47.39% and 48.04%
same,The mean inhibitory ratio (%),"24 h, 25 μm",48.26%
same,The inhibitory ratio (%) for three parallel assays,"24 h, 40 μm",63.91% and 64.13% and 64.35%
same,The mean inhibitory ratio (%),"24 h, 40 μm",64.13%
same,The inhibitory ratio (%) for three parallel assays,"24 h, 50 μm",56.46% and 55.83% and 56.04%
same,The mean inhibitory ratio (%),"24 h, 50 μm",56.11%
same,The inhibitory ratio (%) for three parallel assays,"24 h, 80 μm",74.79% and 72.92% and 73.54%
same,The mean inhibitory ratio (%),"24 h, 80 μm",73.75%
same,The inhibitory ratio (%) for three parallel assays,"24 h, 100 μm",80.63% and 79.58% and 79.17%
same,The mean inhibitory ratio (%),"24 h, 100 μm",79.79%
same,The inhibitory ratio (%) for three parallel assays,"48 h, 10 μm",48.91% and 48.44% and 45.94%
same,The mean inhibitory ratio (%),"48 h, 10 μm",47.76%
same,The inhibitory ratio (%) for three parallel assays,"48 h, 25 μm",66.88% and 67.03% and 66.72%
same,The mean inhibitory ratio (%),"48 h, 25 μm",66.88%
same,The inhibitory ratio (%) for three parallel assays,"48 h, 40 μm",74.53% and 74.22%
same,The mean inhibitory ratio (%),"48 h, 40 μm",74.43%
same,The inhibitory ratio (%) for three parallel assays,"48 h, 50 μm",69.50% and 67.00% and 66.67%
same,The mean inhibitory ratio (%),"48 h, 50 μm",67.72%
same,The inhibitory ratio (%) for three parallel assays,"48 h, 80 μm",81.17% and 80.00% and 80.17%
same,The mean inhibitory ratio (%),"48 h, 80 μm",80.44%
same,The inhibitory ratio (%) for three parallel assays,"48 h, 100 μm",82.50% and 81.33% and 82.33%
same,The mean inhibitory ratio (%),"48 h, 100 μm",82.06%
same,The inhibitory ratio (%) for three parallel assays,"72 h, 10 μm",63.42% and 63.87% and 64.59%
same,The mean inhibitory ratio (%),"72 h, 10 μm",63.96%
same,The inhibitory ratio (%) for three parallel assays,"72 h, 25 μm",83.06% and 82.97% and 83.69%
same,The mean inhibitory ratio (%),"72 h, 25 μm",83.24%
same,The inhibitory ratio (%) for three parallel assays,"72 h, 40 μm",86.76% and 86.13% and 87.66%
same,The mean inhibitory ratio (%),"72 h, 40 μm",86.85%
same,The inhibitory ratio (%) for three parallel assays,"72 h, 50 μm",82.70% and 81.35% and 82.43%
same,The mean inhibitory ratio (%),"72 h, 50 μm",82.16%
same,The inhibitory ratio (%) for three parallel assays,"72 h, 80 μm",85.95% and 86.22% and 86.08%
same,The mean inhibitory ratio (%),"72 h, 80 μm",86.08%
same,The inhibitory ratio (%) for three parallel assays,"72 h, 100 μm",85.41% and 85.68%
same,The mean inhibitory ratio (%),"72 h, 100 μm",85.59%
